The values that follow come from patent publication US20110184188A1, “Insecticidal Benzenedicarboxamide Derivative” (priority 2008, published 2011).

In the first data set the test system is Spodoptera litura third instar larvae. Nature of the data set: Test to larva of Spodoptera litura (sweet potato leaf dip). The conditions noted are these: foliar, 168 h; Spodoptera litura third instar larvae, active ingredient concentration 20 ppm, seven days later, 25° C.; read-out: insect mortality. Type of data set: in vivo. On the procedure: Test to Larva of Spodoptera litura
Solvent: dimethylformamide 3 parts by weight Emulsifier: polyoxyethylene alkyl phenyl ether 1 part by weight
In order to prepare preparations of suitable active compounds, 1 part by weight of each of the active compounds was blended with the above amount of the solvent containing the above amount of the emulsifier, and the resulting mixture was diluted to a prescribed concentration with water.
Leaves of sweet potato were immersed in the tested liquid medication of a prescribed concentration diluted with water. After air drying of the liquid medication, the leaves were put into a petri dish of a diameter of 9 cm, and 10 Spodoptera litura third instar larvae were released in the petri dish, and the petri dish was placed in a constant temperature room of 25° C. Two days later and four days later, leaves of sweet potato were added. Seven days later, the number of dead insects was examined, and insect mortality was calculated.
In the present test, results of 2 petri dishes for each compound were averaged.
For the compound `CON=C(c1cn(Cc2ccc(NC(=O)c3cccc(I)c3C(=O)N[C@@H](C)CSC)c(C)c2)nc1C(F)(F)F)C(F)(F)F` [13-147, 3-iodo-N^2-[(1S)-1-methyl-2-(methylthio)ethyl]-N^1-[2-methyl-4-({4-[2,2,2-trifluoro-N-methoxyethanimidoyl]-3-(trifluoromethyl)-1H-pyrazol-1-yl}methyl)phenyl]-1,2-benzenedicarboxamide], the mortality at 20 ppm came out at 100%.
As to `Cc1cc(Cn2cc(C(F)(F)C(F)(F)F)c(C(F)(F)C(F)(F)F)n2)ccc1NC(=O)c1cccc(Br)c1C(=O)N[C@@H](C)CS(C)(=O)=O` [13-140, N^1-(4-{[3,4-bis(pentafluoroethyl)-1H-pyrazol-1-yl]methyl}-2-methylphenyl)-3-bromo-N^2-[(1S)-1-methyl-2-(methylsulfonyl)ethyl]-1,2-benzenedicarboxamide], the mortality at 20 ppm turned out to be 100%.
With `CSC[C@H](C)NC(=O)c1c(Cl)cccc1C(=O)Nc1ccc(CN2N=C(C(F)(F)C(F)(F)F)N(C(C)=O)C2C(F)(F)F)cc1C` (stereo partly drawn) [16-6, N^1-(4-{[4-acetyl-3-(pentafluoroethyl)-5-(trifluoromethyl)-4,5-dihydro-1H-1,2,4-triazol-1-yl]methyl}-2-methylphenyl)-3-chloro-N^2-[(2S)-1-(methylsulfanyl)propan-2-yl]-1,2-benzenedicarboxamide], the mortality at 20 ppm turned out to be 100%.
On to `COC(=O)CNC(=O)C(C)(C)NC(=O)c1c(Cl)cccc1C(=O)Nc1ccc(Cn2nc(C(F)(F)F)cc2C(F)(F)F)cc1C` [13-121, methyl N-{2-[(4-{[3,5-bis(trifluoromethyl)-1H-pyrazol-1-yl]methyl}-2-methylphenyl)carbamoyl]-6-chlorobenzoyl)-2-methylalanyl glycinate], for which the mortality at 20 ppm is 100%.
Same read-out and setting: as for `Cc1cc(Cn2nc(C(F)(F)C(F)(F)F)nc2C(F)(F)F)ccc1NC(=O)c1cccc(Cl)c1C(=O)NC(C)(C)C=O` [14-130, 3-chloro-N^2-(1,1-dimethyl-2-oxoethyl)-N^1-(2-methyl-4-{[3-(pentafluoroethyl)-5-(trifluoromethyl)-1H-1,2,4-triazol-1-yl]methyl}phenyl)-1,2-benzenedicarboxamide], the figure is 100%.

Test system in another data set: not listed separately
Description: logP(acid) by reverse phase (C18) chromatography at pH 2.3. The data set is classed as physicochemical. The conditions noted are these: reverse phase (C18) chromatography at pH 2.3.
For the compound `Cc1nc(Cn2nc(C(F)(F)C(F)(F)C(F)(F)F)cc2C(F)(F)F)ccc1NC(=O)c1cccc(Br)c1C(=O)N[C@@H](C)CS(C)(=O)=O` [13-139], the “logP (acid)” value is given as “logP (acid) 3.56”.
Regarding `Cc1cc(Cn2nc(C(F)(F)F)cc2C(F)(F)F)ccc1NC(=O)c1c(Cl)ccc(Cl)c1C(=O)N[C@@H](C)CS(C)(=O)=O` [11-23], the “logP (acid)” value is “logP (acid) 3.40”.
Turning to `Cc1nc(Cn2nc(C(F)(F)F)cc2C(F)(F)F)ccc1NC(=O)c1cc(Cl)cc(Cl)c1C(=O)N[C@@H](C)C[S+](C)[O-]` (stereo partly drawn) [10-2], the “logP (acid)” value is recorded as “logP (acid) 2.83”.
In the case of `Cc1cc(Cn2nc(C(F)(F)C(F)(F)F)nc2C(F)(F)F)ccc1NC(=O)c1cc(Cl)cc(Cl)c1C(=O)N[C@@H](C)CS(C)(=O)=O` [10-12], the “logP (acid)” value is reported as “logP (acid) 3.61”.
In the case of `CNC(=O)c1cc(Cl)cc(Cl)c1C(=O)Nc1ccc(Cn2nc(C(F)(F)F)nc2C(F)(F)F)cc1C` [12-4], the “logP (acid)” value was “logP (acid) 3.39”.
`CSC[C@H](C)NC(=O)c1c(Br)cccc1C(=O)Nc1cnc(Cn2nc(C(F)(F)F)cc2C(F)(F)F)cc1C` [13-178]: the “logP (acid)” value is “logP (acid) 3.59”.

The same data set, now with this note: reverse phase (C18) chromatography, pH 2.3.
As for `CSCC(C)NC(=O)c1c(C(=O)Nc2ccc(C(O)c3cc(C(F)(F)C(F)(F)F)n[nH]3)cc2C)cccc1S(C)(=O)=O` (mixture of isomers) [13-341], the “logP (acid)” value is listed as “logP (acid) 2.02”.
For `CSC[C@H](C)NC(=O)c1c(SC)cccc1C(=O)Nc1ccc(Cn2nc(C(F)(F)C(F)(F)F)c(C(F)(F)F)c2F)cc1C` [13-308], the “logP (acid)” value is “logP (acid) 4.43”.
Turning to `CCS(=O)(=O)c1cccc(C(=O)Nc2ccc(Cn3nc(C(F)(F)F)cc3C(F)(F)F)cc2C)c1C(=O)N[C@@H](C)CSC` [13-346], the “logP (acid)” value is listed as “logP (acid) 3.74”.
As for `CSC[C@H](C)NC(=O)c1c(SC)cccc1C(=O)Nc1cnc(Cn2nc(C(F)(F)F)nc2C(F)(F)F)cc1C` [14-415], the “logP (acid)” value is “logP (acid) 3.3”.
Turning to `CSC[C@H](C)NC(=O)c1c(Br)cccc1C(=O)Nc1ccc(Cn2nc(C(F)(F)C(F)(F)F)n(C(F)F)c2=O)cc1C` [14-331], the “logP (acid)” value was “logP (acid) 3.75”.
Consider `CSC[C@H](C)NC(=O)c1c(C(=O)Nc2ccc(Cn3nc(C(F)(F)C(F)(F)F)cc3C(F)(F)F)cc2C)cccc1S(C)(=O)=O` [13-311], for which the “logP (acid)” value was “logP (acid) 4.20”.
In the case of `CSC[C@H](C)NC(=O)c1c(Cl)cccc1C(=O)Nc1ccc(Cn2cnc(C(F)(F)C(F)F)n2)nc1C` [14-309], the “logP (acid)” value is given as “logP (acid) 2.38”.
As for `Cc1nc(Cn2nc(C(F)(F)F)n(C)c2=O)ccc1NC(=O)c1cccc(Cl)c1C(=O)N[C@@H](C)C[S+](C)[O-]` (stereo partly drawn) [14-321], the “logP (acid)” value is on record as “logP (acid) 1.37”.
Regarding `CSC[C@H](C)NC(=O)c1c(Cl)cccc1C(=O)Nc1ccc(Cn2nc(C(F)(F)F)cc2C(F)(F)F)nc1Cl` [13-232], the “logP (acid)” value is on record as “logP (acid) 3.97”.
On to `CSC[C@H](C)NC(=O)c1c(Cl)cccc1C(=O)Nc1ccc(Cn2nnc(-c3ccc(C(F)(F)F)cc3)n2)cc1C` [14-305], for which the “logP (acid)” value was “logP (acid) 4.08”.
Same read-out and setting: as for `CSC[C@H](C)NC(=O)c1c(SC)cccc1C(=O)Nc1ccc(Cn2nc(C(F)(F)C(F)(F)F)cc2C(=O)C(F)(F)F)cc1C` [13-325], the entry is “logP (acid) 3.50”.

The data set is the same for the next values; noted with them: reverse phase (C18) chromatography, pH2.3, 0.1% phosphoric acid / acetonitrile gradient 10-95%.
Turning to `CSC[C@H](C)NC(=O)c1c(Cl)cccc1C(=O)Nc1cc(F)c(C)cc1Cn1nc(C(F)(F)F)nc1C(F)(F)F` [3-8], the “logP (acid)” value was “logP (acid) 4.13”.

Test system in another data set: not given
Experiment: not given
Conditions: not given
Take `CCC(C)NC(=O)c1cccc(Cl)c1C(=O)Nc1ccc(Cn2nc(C(F)(F)F)cc2C(F)(F)F)cc1C` (stereo not drawn): the melting point is 211 to 212 °C.
The same measure, in the same setting: as for `Cc1cc(Cn2nc(C(F)(F)C(F)(F)F)nc2C(F)(F)F)ccc1NC(=O)c1cccc(Cl)c1C(=O)NC(C)(C)CO`, the figure is 105 to 110 °C; as for `CSC[C@H](C)NC(=O)c1c(Cl)cccc1C(=O)Nc1ccc(Cn2c(C)nnc2C(F)(F)F)cc1C`, 168 to 170 °C.
Regarding `CCN(CC)C(=O)c1c(Cl)cccc1C(=O)Nc1ccc(Cn2nc(C(F)(F)F)cc2C(F)(F)F)cc1C`, the melting point was 105 to 107 °C.
Regarding `Cc1cc(Cn2nc(C(F)(F)C(F)(F)F)nc2C(F)(F)F)ccc1NC(=O)c1cccc(Cl)c1C(=O)NC(C)(C)C=NO`, the melting point lay within 203 to 206 °C.
The compound `Cc1cc(Cn2nc(C(F)(F)C(F)(F)F)nc2C(F)(F)F)ccc1NC(=O)c1cccc(-c2cc(C(F)(F)F)cc(C(F)(F)F)c2)c1C(=O)N[C@@H](C)CS(C)(=O)=O` returned a melting point of 201 °C.
Still for that read-out and setting: as for `CCC(C)NC(=O)c1c(Cl)cccc1C(=O)Nc1ccc(Cn2nc(C(F)(F)F)cc2C(F)(F)F)cc1C` (stereo not drawn), the figure is 187 to 188 °C; as for `Cc1cc(Cn2nc(C(F)(F)F)cc2C(F)(F)F)ccc1NC(=O)c1ccccc1C(=O)NC(C)C`, 170 to 172 °C.
Regarding `Cc1cc(Cn2nc(C(F)(F)F)cc2C(F)(F)F)ccc1NC(=O)c1cccc(Cl)c1C(=O)NC(C)(C)C(=O)O`, the melting point was in the range of 179 to 184 °C.
With `CC(C)NC(=O)c1ccccc1C(=O)Nc1ccc(Cn2nc(C(F)(F)F)cc2C(F)(F)F)cc1`, the melting point lay within 176 to 178 °C.
